According to patent US20100235931A1, “Novel Neurological Function of mPKCI” (priority 2006, published 2010):
Entries after “also recorded” stand apart in the source; their conditions may differ.

What was measured:
mPKCI WT and KO mice = experiment: Locomotor activity measurement (open field, ambulation and stereotypy); format: in vivo
Description: The generation of PKCI^−/− mice was described previously (Su et al, 2003, supra). PKCI^−/− mice and their wild type littermates were derived by breeding heterozygous […] mice for altered PKCI allele (Hint1) and genotype of the animals was confirmed by PCR of DNA from tail biopsies. Animals were housed 4-6/cage, maintained under standard laboratory condition with food and water provided ad libitum. The male animals were tested between 10-20 weeks of age. Wild type and PKCI^−/− groups were matched for age in all experiments. All studies were conducted with an approved protocol from University of Maryland, School of Pharmacy IACUC.
Mice locomotor activity was monitored during an open field test using “Activity Monitor” chambers (27×27×20.3 cm) associated with the Activity Monitor software (Med Associates Inc St Albans Vt.). Room temperature was set at 23° C.+/−2° C. Horizontal spontaneous locomotion activity, scored as ambulatory counts and stereotypic movements (Sanberg P. R. et al 1987, Pharmacol. Biochem. Behav. 27, 569-72), was recorded during the first 30 min of acclimatization to the novel environment and during 120 min following the treatment. The animals were acclimated to a 12 h cycle light/dark phase with the light on at 7:00 am before the experiments. Tests were performed during the light phase of the cycle between 8:00 am to 3:00 pm. AMPH or other drugs was prepared freshly before each experiment by dissolving in saline (NaCl 0.9%) and administered via intra peritoneal in a total volume of 10 ml/kg at the indicated doses.

[1] = system: PKCI/HINT1 WT and KO mice; experiment: Tail suspension test, effect of haloperidol; format: in vivo
Text: In order to confirm the results of the forced swim test while removing any bias introduced by the animal's swimming or learning capacity, we used the tail suspension test. This test assesses depression trait using coping behavior in a stressful situation (Cryan J F et al., 2005, Neruosc. Behav. Rev. 29, 571-625). The animals are exposed to a […] stress of being hung in an uncontrollable fashion by the tail for six minutes. Immobility, considered as a depression trait when the animal gives up any escape, is reported in seconds. Data are expressed as mean+/−SEM and analyzed using a 2 way ANOVA (age×genotype) followed by Bonferroni when p<0.05.
Haloperidol 0.05 mg/kg and 0.1 mg/kg were administered via intra-peritoneal (10 ml/kg) 30 minutes before the test. Data are expressed as mean+/−SEM and analyzed using a 2 way ANOVA (treatment×genotype) followed by Bonferroni when p<0.05.

mice [2] = conditions: previously described; cited from earlier work
mice [3] = conditions: 10 mg/kg dose; cited from earlier work
[4] = system: extracellular DA in nucleus accumbens and caudate-putamen of mPKCI WT and KO mice; experiment: In vivo microdialysis, amphetamine-evoked extracellular DA; conditions: 2.5 mg/kg ip, conventional microdialysis, FIG. 4
Description: PKCI^−/− mice and their WT controls were anesthetized and implanted unilaterally with a microdialysis guide cannula (CMA/11, CMA microdialysis) in the nucleus accumbens (AP: +1.5, L: −0.8, V: −3.8 from bregma) or the dorsal striatum (AP: +0.4, L−2.1, V−2.2 from bregma) using standard stereotaxic techniques, and allowed to recover for 5 days prior to the microdialysis experiment as described. […]
For no net flux experiments, five different concentrations of DA (0, 5, 10, 20 and 40 nM) in aCSF were perfused in random order through the dialysis probe. […] The DA content was determined by HPLC coupled to electrochemical detection with an external standard. All the samples were analyzed within 48 hours of collection. […] No net flux data was analyzed as described (Chefer et al 2006, supra). The net flux of DA through the probe (DAin-DAout) was calculated and plotted against the concentration of DA perfused (DAin). The following parameters were calculated from the resulting linear function. […] In the conventional microdialysis experiments investigating the effects of amphetamine, the average of the three baseline samples was calculated, and all the DA concentrations were expressed as % of baseline. […]

PKCI KO mice = experiment: Conditional place preference test; format: in vivo; conditions: preliminary data
Text: Finally, we are looking at the involvement of PKCI in the rewarding function in PKCI KO mice. In this study, we are testing the response of the KO mice to the reward action of amphetamine and cocaine by using conditional place preference test.

CN1CCc2cccc3c2[C@H]1Cc1ccc(O)c(O)c1-3 [apomorphine]
locomotor activity (total ambulation and stereotyped behavior), KO compared with WT (mPKCI WT and KO mice; apomorphine 10 mg/kg i.p., FIG. 5): significantly higher locomotor activity as compared with WT

O=C(CCCN1CCC(O)(c2ccc(Cl)cc2)CC1)c1ccc(F)cc1 [Haloperidol]
immobility compared with saline treatment ([1]; 0.05 mg/kg and 0.1 mg/kg i.p. 30 minutes before the test, WT and KO, FIG. 8): increased immobility in both WT and KO animals | increase in immobility in KO mice relative to WT level ([1]; 0.1 mg/kg, 3 months and 15 months old): reaching the level attained by WT animals | mice immobility in the tail suspension test (mice [2]): increase mice immobility

CN1CC[C@]23c4c5ccc(O)c4O[C@H]2[C@@H](O)C=C[C@H]3[C@H]1C5 [morphine]
effect on locomotor activity (mPKCI WT and KO mice; morphine 10 mg/kg i.p., 120 min after treatment, WT and KO mice, FIG. 2): did not promote increase in locomotor activity; also recorded: depressive locomotor effect on both wild type and knockout mice | locomotion (mice [3]): a decrease in locomotion was often observed

C[C@H](N)Cc1ccccc1 [amphetamine, D-amphetamine]
effect on locomotion (mPKCI WT and KO mice; AMPH 2.5 mg/kg i.p., 120 min after treatment, WT and KO mice, FIG. 2): increased locomotion in both WT and KO animals | amphetamine-evoked locomotor response, PKCI KO compared with WT (mPKCI WT and KO mice; AMPH 2.5 mg/kg i.p., KO vs WT): three times more | increase in amphetamine-evoked activity in mPKCI KO mice, dose response (mPKCI WT and KO mice; D-AMPH 1.25, 2.5 and 5 mg/kg i.p., FIG. 3): consistent across a range of amphetamine doses | amphetamine-evoked DA response, WT vs KO [4]: No significant difference between WT and KO mice; also recorded: did not differ in WT and KO animals | response of KO mice to reward action (PKCI KO mice): higher response
